Assay results reported in ChEMBL document CHEMBL1201862, “PubChem BioAssay data set” (2004).
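Cultured in 96-well plates, cells were exposed to test compound for 48 hours across five concentrations. At the GI50, growth is halved.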 Active and inactive are the calls of the source. Rule as the data show it: active = GI50 up to about 1.1 µM and inactive = higher.

Tests used:
Assay in all cases: NCI tumour cell line growth inhibition, 48 h
A498 = system: A498
HCC 2998 = system: HCC 2998
HCT-116 = system: HCT-116
HL-60 = system: HL-60
HOP-92 = system: HOP-92
HT-29 = system: HT-29
M14 = system: M14
Malme-3M = system: Malme-3M
NCI-H522 = system: NCI-H522
OVCAR-8 = system: OVCAR-8
SF-268 = system: SF-268
SF-295 = system: SF-295
SK-MEL-28 = system: SK-MEL-28
SN12C = system: SN12C
SR = system: SR
U-251 = system: U-251
MCF7 = system: MCF7
MDA-MB-435 = system: MDA-MB-435
MDA-N = system: MDA-N
DU-145 = system: DU-145

Compound	GI50 (A498)	GI50 (HCC 2998)	GI50 (HCT-116)	GI50 (HL-60)	GI50 (HOP-92)	GI50 (HT-29)	GI50 (M14)	GI50 (Malme-3M)	GI50 (NCI-H522)	GI50 (OVCAR-8)	GI50 (SF-268)	GI50 (SF-295)	GI50 (SK-MEL-28)	GI50 (SN12C)	GI50 (SR)	GI50 (U-251)	GI50 (MCF7)	GI50 (MDA-MB-435)	GI50 (MDA-N)	GI50 (DU-145)
CC(=O)Oc1c(-c2ccccc2)[nH]c2cc([N+](=O)[O-])c(/C(Cl)=C/c3ccccc3)cc12	2.88 µM (inactive)	4.6 µM (inactive)	3.91 µM (inactive)	2.84 µM (inactive)	3.65 µM (inactive)	3.2 µM (inactive)	7.73 µM (inactive)	4.1 µM (inactive)	4.86 µM (inactive)	4.3 µM (inactive)	7.96 µM (inactive)	4.08 µM (inactive)	6.37 µM (inactive)	4.86 µM (inactive)	3.57 µM (inactive)	4.52 µM (inactive)	–	–	–	–
N#Cc1c(-c2ccccc2)c(/N=N/c2ccc(Cl)cc2)c(=O)n2c1[nH]c1ccccc12	> 100 µM (inactive)	52.6 µM (inactive)	31 µM (inactive)	–	–	–	> 100 µM (inactive)	> 100 µM (inactive)	79.4 µM (inactive)	90.2 µM (inactive)	79.1 µM (inactive)	76.7 µM (inactive)	> 100 µM (inactive)	> 100 µM (inactive)	–	21.2 µM (inactive)	> 100 µM (inactive)	> 100 µM (inactive)	> 100 µM (inactive)	–
CC(=O)n1[nH]c(=O)n(-c2ccc(Cl)cc2)c1=O	–	> 100 µM (inactive)	> 100 µM (inactive)	> 100 µM (inactive)	–	> 100 µM (inactive)	> 100 µM (inactive)	45.9 µM (inactive)	> 100 µM (inactive)	> 100 µM (inactive)	> 100 µM (inactive)	> 100 µM (inactive)	> 100 µM (inactive)	> 100 µM (inactive)	> 100 µM (inactive)	> 100 µM (inactive)	> 100 µM (inactive)	> 100 µM (inactive)	> 100 µM (inactive)	> 100 µM (inactive)
c1ccc(C2SCc3nc4ccccc4n32)cc1 (stereo not given)	40.6 µM (inactive)	30.4 µM (inactive)	19.7 µM (inactive)	15.6 µM (inactive)	22.2 µM (inactive)	46 µM (inactive)	84.5 µM (inactive)	38.3 µM (inactive)	18.9 µM (inactive)	65 µM (inactive)	37.9 µM (inactive)	23 µM (inactive)	40.3 µM (inactive)	46.1 µM (inactive)	25.8 µM (inactive)	58.7 µM (inactive)	–	–	–	–
CN(NC(=O)c1cccs1)C1=NCCN1	> 100 µM (inactive)	> 100 µM (inactive)	> 100 µM (inactive)	> 100 µM (inactive)	> 100 µM (inactive)	> 100 µM (inactive)	> 100 µM (inactive)	> 100 µM (inactive)	> 100 µM (inactive)	> 100 µM (inactive)	> 100 µM (inactive)	> 100 µM (inactive)	> 100 µM (inactive)	–	> 100 µM (inactive)	> 100 µM (inactive)	> 100 µM (inactive)	> 100 µM (inactive)	> 100 µM (inactive)	–
C#CC[N+](CCO)(CCO)CCCCCCCCCCCCCCCCCC	17.2 µM (inactive)	11.5 µM (inactive)	8.41 µM (inactive)	1.55 µM (inactive)	2 µM (inactive)	4.59 µM (inactive)	–	18.4 µM (inactive)	6.85 µM (inactive)	16.1 µM (inactive)	8.69 µM (inactive)	7.76 µM (inactive)	16.5 µM (inactive)	16.4 µM (inactive)	–	6.47 µM (inactive)	14.8 µM (inactive)	–	–	–
CCOC(=O)C1=C(O)C(=O)c2ccoc2C1=O	> 100 µM (inactive)	> 100 µM (inactive)	> 100 µM (inactive)	> 100 µM (inactive)	> 100 µM (inactive)	> 100 µM (inactive)	> 100 µM (inactive)	> 100 µM (inactive)	> 100 µM (inactive)	> 100 µM (inactive)	> 100 µM (inactive)	> 100 µM (inactive)	> 100 µM (inactive)	> 100 µM (inactive)	> 100 µM (inactive)	> 100 µM (inactive)	–	–	–	–
CC(=O)Oc1cc2oc(=O)cc(C)c2cc1OC(C)=O	44.6 µM (inactive)	–	44 µM (inactive)	–	–	39.6 µM (inactive)	50.6 µM (inactive)	28.5 µM (inactive)	–	32.2 µM (inactive)	36.6 µM (inactive)	41.8 µM (inactive)	53.1 µM (inactive)	48.1 µM (inactive)	39.6 µM (inactive)	51.1 µM (inactive)	38.8 µM (inactive)	48.4 µM (inactive)	> 100 µM (inactive)	52.7 µM (inactive)
N/C(=N\c1ccc(Cl)cc1)NS(=O)(=O)c1cc(Cl)c(Oc2ccc([N+](=O)[O-])cc2Cl)c(Cl)c1	15.5 µM (inactive)	–	16.7 µM (inactive)	16.7 µM (inactive)	17.2 µM (inactive)	20.4 µM (inactive)	18.6 µM (inactive)	> 100 µM (inactive)	> 100 µM (inactive)	16.6 µM (inactive)	> 100 µM (inactive)	17.4 µM (inactive)	16.9 µM (inactive)	17.5 µM (inactive)	18.9 µM (inactive)	14.8 µM (inactive)	–	18.4 µM (inactive)	18.2 µM (inactive)	15.7 µM (inactive)
CCCCCCNCCCNc1c2cc(OC)ccc2nc2cccc([N+](=O)[O-])c12	1.62 µM (inactive)	0.0203 µM (active)	0.036 µM (active)	0.214 µM (active)	0.136 µM (active)	0.0326 µM (active)	0.143 µM (active)	0.0304 µM (active)	< 0.0195 µM (active)	–	0.0731 µM (active)	0.0865 µM (active)	0.208 µM (active)	0.0787 µM (active)	0.0173 µM (active)	0.131 µM (active)	0.212 µM (active)	0.143 µM (active)	–	0.0413 µM (active)
CC(C)CCc1n[nH]c(=O)n1/N=C\c1ccccc1	49 µM (inactive)	> 100 µM (inactive)	> 100 µM (inactive)	–	> 100 µM (inactive)	> 100 µM (inactive)	> 100 µM (inactive)	> 100 µM (inactive)	85.7 µM (inactive)	> 100 µM (inactive)	> 100 µM (inactive)	> 100 µM (inactive)	> 100 µM (inactive)	> 100 µM (inactive)	–	> 100 µM (inactive)	–	> 100 µM (inactive)	> 100 µM (inactive)	> 100 µM (inactive)
O=C(Cn1c(=O)oc2ccccc21)N(c1ccccc1)c1ccccc1	> 100 µM (inactive)	–	> 100 µM (inactive)	> 100 µM (inactive)	–	> 100 µM (inactive)	> 100 µM (inactive)	3.39 µM (inactive)	–	52.8 µM (inactive)	67.5 µM (inactive)	> 100 µM (inactive)	> 100 µM (inactive)	> 100 µM (inactive)	> 100 µM (inactive)	95.1 µM (inactive)	> 100 µM (inactive)	> 100 µM (inactive)	> 100 µM (inactive)	> 100 µM (inactive)
CN(C(=O)Cc1ccc(Cl)c(Cl)c1)[C@H]1CCCC[C@@H]1[N+]1(C)CCCC1	> 100 µM (inactive)	–	> 100 µM (inactive)	–	–	> 100 µM (inactive)	> 100 µM (inactive)	> 100 µM (inactive)	> 100 µM (inactive)	> 100 µM (inactive)	> 100 µM (inactive)	> 100 µM (inactive)	> 100 µM (inactive)	> 100 µM (inactive)	> 100 µM (inactive)	> 100 µM (inactive)	> 100 µM (inactive)	> 100 µM (inactive)	> 100 µM (inactive)	> 100 µM (inactive)
COc1cc(O)c2c(=O)c3c(C)cccc3n(C)c2c1	> 10 µM (inactive)	> 10 µM (inactive)	> 10 µM (inactive)	–	> 10 µM (inactive)	> 10 µM (inactive)	> 10 µM (inactive)	> 10 µM (inactive)	> 10 µM (inactive)	> 10 µM (inactive)	> 10 µM (inactive)	> 10 µM (inactive)	> 10 µM (inactive)	> 10 µM (inactive)	–	> 10 µM (inactive)	> 10 µM (inactive)	> 10 µM (inactive)	> 10 µM (inactive)	> 10 µM (inactive)
O=c1c(Cl)c(Cl)c(=O)c2sc3cc(Cl)ccc3[nH]c1=2	> 100 µM (inactive)	–	33 µM (inactive)	7.73 µM (inactive)	16.7 µM (inactive)	> 100 µM (inactive)	40.5 µM (inactive)	40.1 µM (inactive)	16.1 µM (inactive)	14.5 µM (inactive)	38.6 µM (inactive)	70.8 µM (inactive)	> 100 µM (inactive)	–	7.48 µM (inactive)	31.4 µM (inactive)	73.3 µM (inactive)	34 µM (inactive)	–	> 100 µM (inactive)
CC(=O)O[C@H]1CC2C(C3CCC(C(C)CCC(=O)O)[C@]31C)[C@H](OC(C)=O)C[C@@H]1CC3(CC[C@]21C)OOC1(CC[C@]2(C)C4C[C@H](OC(C)=O)[C@]5(C)C(C(C)CCC(=O)O)CCC5C4[C@H](OC(C)=O)C[C@@H]2C1)OO3 (stereo not given in full)	–	2.03 µM (inactive)	1.75 µM (inactive)	1.51 µM (inactive)	–	2.57 µM (inactive)	2.53 µM (inactive)	1.52 µM (inactive)	1.42 µM (inactive)	1.66 µM (inactive)	1.38 µM (inactive)	1.77 µM (inactive)	4.09 µM (inactive)	2.42 µM (inactive)	3.3 µM (inactive)	1.28 µM (inactive)	2.7 µM (inactive)	1.94 µM (inactive)	2.31 µM (inactive)	1.2 µM (inactive)
